Assay results as given in patent US4153684A, “Immunizing and anti-infectious adjuvant agents constituted by N-acetyl-muramyl-L-alanyl-D-glutamic acid derivatives” (priority 1976, dated 1979).
Where “and” joins values, the source holds several entries; their conditions need not be identical. Equal entries are not always repeated.

Columns and labels:
[1] = tested on: retarded hypersensitivity to ovalbumin; experiment: Retarded hypersensitivity cutaneous test to ovalbumin (esters); format: in vivo, Hartley guinea-pigs; conditions: 100μg in FIA emulsion, challenge day 18, read 48 hours after
Procedure: The tests are effected on batches of 6 Hartley guinea-pigs, females, of 350 g. The administration is made by intradermal injection in the planter pad of each of the hind feet. […] The compound according to the invention is administered at the rate of 0.1 mg contained in the emulsion containing the FIA.
Eighteen days after this immunisation, one looks for possible reactions of retarded hypersensitivity in the antigen on injecting indradermally 0.01 mg or 5 μg of ovalbumin on the side of the animals, and 48 hours after, the reaction at the point of injection is observed. The diameter in mm of the reaction thus caused is measured.

[2] = tested on: antibody specific to the ovalbumin; experiment: Adjuvant character in oily phase: serum antibody specific to ovalbumin (esters); format: in vivo, Hartley guinea-pigs; conditions: 100μg in FIA emulsion; for Serum antibody Precipitation: intradermal, 21 days; for Serum antibody Agglutination: passive hemagglutination
[3] = tested on: anti-albumin antibody; experiment: Adjuvant character in aqueous phase: anti-albumin antibody by passive hemagglutination (esters); format: in vivo, Swiss mice
Procedure: In the series of tests of which the results are indicated hereafter, the influence of the active principle according to the invention on the proportion of the anti-albumin antibody has been studied under the following conditions.
Groups of 8 Swiss mice aged two months receive by subcutaneous injection (SC) or orally (PO) 0.5 mg of antigen constituted by the albumin of bovine serum (BSA) with or without the substance tested in an isotonic saline solution. This large dose of antigen, since it is situated at the limit of the paralysing dose with respect to the immunising response, on account of this fact has a weak response or no response to the antigen alone in the case of the controls; it therefore constitutes a severe criterion for showing the activity of an adjuvant substance. Thirty days later, the mice receive, by the same method of administration, a further dose containing 0.1 mg of the same antigen.
The proportion of antibody is determined by passive hemagglutination by using the red blood corpuscles of sheep treated with formalin and recovered from the antigen studied according to the method described by A. A. Hirata and M. W. Brandiss (J. Immunol., 100, 641-648, 1968). The taking of the blood occurred 14, 28, 34 and 36 days after the first injection.
By way of comparison, mice receive, instead of the product according to the invention, either lipopolysaccharides (LPS) (extract of S.Enteritidis by the water-phenol method), or the adjuvant denoted by the name "WSA" and described by Adam et al. [Infect. Immun. (1973) 7, 855-861]. The control mice only receive the antigen.
The proportions of antibody express the maximum serum dilution which agglutinates a given quantity of red blood corpuscles of sheep.

[4] = tested on: K. pneumoniae; design: species or system mice; conditions: mouse, in vivo, iv
[5] = tested on: Klebsiella pneumoniae; experiment: Anti-infectious protection, intramuscular inoculation of 10^4 K.pneumoniae; format: in vivo, hybrid mice (C57B1/6×AKR)Fl; conditions: for Number of animals surviving on day 3 / Number of animals surviving on day 5 / Number of animals surviving on day 8: mouse, in vivo
[6] = tested on: anti-albumin antibodies; experiment: Adjuvant character in aqueous phase, first antigen dose 0.05 mg BSA, PA and ABC (Ser series); format: in vivo, Swiss mice; conditions: 100 μg, first BSA dose 0.05 mg
Procedure: (§1) Groups of 8 Swiss mice aged two months receive, by subcutaneous injection, 0.5 mg of antigen constituted by the albumin of bovine serum (BSA) and 0.1 mg of the tested substance in an isotonic saline solution. This high dose of antigen, since it is situated at the limit of the paralysing dose with respect to the immunising response, therefore carries with it a weak response or no response to the antigen alone in the tests; it then constitutes a severe criterion for showing the activity of an adjuvant substance. Thirty days later, the mice receive a further dose containing 0.1 mg of the same antigen.
(§2) The strength of the antibody is determined by passive hemagglutination by using the red blood corpuscles of sheep treated with formalin and recovered from the antigen studied by the method described by A. A. Hirata and M. W. Brandiss (J. Immunol., 100, 641-648, 1968). The taking of the blood occurred 14, 28, 34 and 36 days after the first injection.
(§3) By way of comparison, the mice receive, instead of the Mur-NAc-L-Ser-D-iso-Gln, either lipopolysaccharides (LPS) (extract of S. Enteritidis by the water-phenol method), or the adjuvant denoted by the name "WSA" and described by Adam et al. [Infect. Immun. (1973) 7, 855-861]. The control mice only received the antigen.
These tests were carried out again with limitation of the dose of antigen in the first injection to 0.05 mg, the other conditions being the same. This weaker dose of antigen gives by itself a positive response with the controls which have received the antigen without adjuvant. It thus allows to be shown a substance which inhibits the response of immunising the disorder. Moreover, an adjuvant substance, under these conditions, always increases the strength of antibody with respect to that of the controls.
In these tests, the determination of the strength of antibody has been effected simultaneously by passive hemagglutination (PA) and by the method of fixation of the antigen by the serum (ABC), such as described by P. Minden and S. Parr (Handbook of Exp. Immunol., P. 463, D. M. Weir ed. Blackwell Scient. Pub. Oxford and Edinburgh, 1967).

[7] = tested on: anti-albumin antibodies; experiment: Adjuvant character in aqueous phase, 0.5 mg BSA (Ser series); format: in vivo, Swiss mice
Procedure: In the series of tests of which the results are indicated hereafter, the influence of the active principle according to the invention on the strength of the anti-albumin antibodies has been studied under the following conditions.
as §1, §2, §3

[8] = tested on: mice; experiment: LD50 by intravenous injection on mice, Mur-NAc-L-Ser-D-iso-Gln; format: in vivo; conditions: mice aged two months
Procedure: By progressively increasing the doses administered, that for which the mortality of the mice of a single batch is established at 50% (LD50) is determined.

[9] = tested on: antibody to ovalbumin; experiment: Adjuvant character in oily phase: proportion of antibody to ovalbumin (NHCH3 series); format: in vivo, Hartley guinea-pigs; conditions: 500 μg ovalbumin, 100 μg in FIA emulsion, 21 days
Procedure: As for the preceding tests, one follows the increase of the proportion of antibody caused by the injection of antigen and of the compound of the invention, but, in the present case, the injection contains an oily phase constituted by Freund's incomplete adjuvant (in water-in-oil emulsion).
For these tests, Hartley guinea-pigs of 350 g were used. The control animals receive, in each of the hind feet 0.1 ml of emulsion, either of FIA, or of FCA (Freund's complete adjuvant) containing 500 μg of ovalbumin (antigen). The test product is administered at the rate of 100 μg, in an emulsion of FIA.
21 days after the injection, the proportion of antibody is determined by passive hemagglutatination (PHA), as previously, and by precipitation by the method of Folin.

[10] = tested on: anti-albumin antibodies; experiment: Adjuvant character in aqueous solution: anti-albumin antibodies by passive hemagglutination (NHCH3 series); format: in vivo, Swiss mice
Procedure: Groups of 8 Swiss mice aged two months receive, by subcutaneous injection, 0.5 mg of antigen constituted by the albumin of bovine serum (BSA) and 0.1 mg of the substance tested in an isotonic saline solution. […] Thirty days later, the mice receive a further dose containing 0.1 mg of the same antigen.
The strength of antibody is determined by passive hemagglutination, by using the red blood corpuscles of sheep treated for formalin and recovered from the antigen studied by the method described by A. A. Hirata and M. W. Brandiss (J. Immunol., 100, 641-648, 1968). The taking of the blood took place 14, 28, 34 and 36 days after the first injection.

[11] = 100μg S.C. with BSA 0.5 mg in isotonic saline, maximum serum dilution agglutinating
[12] = 100μg S.C. with BSA 0.5 mg, further 0.1 mg BSA at 30 days
[13] = I.V. 100 μg, 1 hour after the infection
[14] = I.V. 100 μg, 24 hours before the infection
[15] = per os 2000 μg, 24 hours before the infection
[16] = 100μg S.C. with BSA 0.5 mg in isotonic saline
[17] = iv, listed as Mur-NAc-L-Ala-D-Glu-(OCH3)2

| SMILES | Proportion of antibody 28th day ([3]; 100μg S.C. with BSA 0.5 mg) | Proportion of antibody 14th day [3, 11] | Proportion of antibody 34th day [3, 12] | Proportion of antibody 36th day [3, 12] | % of protection [4] [%] | Number of animals surviving on day 3 [4] | Number of animals surviving on day 5 [4] | Number of animals surviving on day 8 [4] | % of protection [5, 13] [%] | % of protection [5, 14] [%] | Number of animals surviving on day 3 [5] | Number of animals surviving on day 5 [5] | Number of animals surviving on day 8 [5] | Number of animals surviving on day 3 ([5]; iv) | Number of animals surviving on day 5 ([5]; iv) | Number of animals surviving on day 8 ([5]; iv) | % of protection [5, 15] [%] | Cutaneous test (diameter in mm) ([1]; ovalbumin 0.5 mg) [mm] | Serum antibody Precipitation ([2]; ovalbumin 0.5 mg) [µg/mL] | Serum antibody Agglutination ([2]; ovalbumin 0.5 mg) | other results |
| --- | --- | --- | --- | --- | --- | --- | --- | --- | --- | --- | --- | --- | --- | --- | --- | --- | --- | --- | --- | --- | --- |
| COC(=O)[C@@H](CCC(=O)O)NC(=O)[C@H](C)NC(=O)[C@@H](C)OC1C(O)C(CO)OC(O)C1NC(C)=O (stereo partly drawn) [Mur-NAc-L-Ala-D-Glu-α-OCH3, 2-(2-acetamido-2-deoxy-3-O-D-glucopyranose)-D-propionyl-L-alanyl-D-glutamic α-methyl ester] | 12 | 12 | 200 | 400 | 65 | 16 | 16 | 12 | 88 | 67 | 11 | 9 | 6 | 24 and 16 | 24 and 16 | 23 and 14 | 40.5 |  |  |  | Cutaneous test (diameter in mm) ([1]; ovalbumin 1 mg): 6 ± 3 mm; Serum antibody Precipitation ([2]; ovalbumin 1 mg, nitrogen precipitable per ml serum): 2600 µg/mL; Proportion of antibody 14th day ([3]; 10μg S.C. with BSA 0.5 mg): 6; Proportion of antibody 28th day ([3]; 10μg S.C. with BSA 0.5 mg): 6; Proportion of antibody 34th day ([3]; 10μg S.C. with BSA 0.5 mg): 200; Proportion of antibody 36th day ([3]; 10μg S.C. with BSA 0.5 mg): 400; Proportion of antibody 14th day ([3]; 2000μg P.O. with BSA 0.5 mg): 6; Proportion of antibody 28th day ([3]; 2000μg P.O. with BSA 0.5 mg): 6; Proportion of antibody 34th day ([3]; 2000μg P.O. with BSA 0.5 mg): 50; Proportion of antibody 36th day ([3]; 2000μg P.O. with BSA 0.5 mg): 200 |
| COC(=O)CC[C@@H](NC(=O)[C@H](C)NC(=O)[C@@H](C)OC1C(O)C(CO)OC(O)C1NC(C)=O)C(N)=O (stereo partly drawn) [Mur-NAc-L-Ala-D-iso-Gln(OCH3), 2-(2-acetamido-2-deoxy-3-O-D-glucopyranose)-D-propionyl-L-alanyl-D-isoglutamine methyl ester] | 12 | 12 | 100 | 800 |  |  |  |  |  | 29 |  |  |  | 21 | 3 | 11 |  | 12 | 2100 | 3000 |  |
| CC(=O)NC1C(O)OC(CO)C(O)C1OC(C)C(=O)NC(CO)C(=O)NC(CCC(=O)O)C(N)=O [Mur-NAc-L-Ser-D-iso-Gln, 2-(2-acetamido-2-deoxy-3-O-D-glucopyranosyl)-D-propionyl-L-seryl-D-isoglutamine] |  |  |  |  |  |  |  |  |  |  |  |  |  |  |  |  |  |  |  |  | Strength of antibody 28th day ABC [6]: < 20; Strength of antibody 28th day PA [6]: 3; Strength of antibody 34th day ABC [6]: < 20; Strength of antibody 34th day PA [6]: 50; Strength of antibody 42nd day PA [6]: 260; Strength of antibody 36 day ABC [6]: 230; Strength of antibody 36 day PA [6]: 800; Strength of antibody 14th day ABC ([6]; fixation of the antigen by the serum): < 20; Strength of antibody 14th day PA ([6]; passive hemagglutination): < 3; Strength of antibody 28th day ([7]; 100μg S.C. with BSA 0.5 mg): 25; strength of antibody 14th day [7, 16]: 12; Strength of antibody 36th day [7, 12]: 1600; strength of antibody 34th day [7, 12]: 1600; LD50 [8]: > 1 g per kg |
| CNC(=O)C(CCC(=O)O)NC(=O)C(C)NC(=O)C(C)OC1C(O)C(CO)OC(O)C1NC(C)=O [Mur-NAc-L-Ala-D-Glu(NHCH3), 2-(2-acetamido-2-deoxy-3-O-D-glucopyranosyl)-D-propionyl-L-alanyl-D-(α-methylamide)-glutamic acid] |  |  |  |  |  |  |  |  |  |  |  |  |  |  |  |  |  |  |  |  | Proportion of antibody Agglutination ([9]; PHA): 6100; Proportion of antibody Precipitation ([9]; method of Folin): 5500; strength of antibody 14th day [10, 16]: 6; strength of antibody 34th day [10, 12]: 1600; strength of antibody day (fourth column, 36 days) [10, 12]: 1600 |
| COC(=O)CC[C@@H](NC(=O)[C@H](C)NC(=O)[C@@H](C)OC1C(O)C(CO)OC(O)C1NC(C)=O)C(=O)OC (stereo partly drawn) [Mur-NAc-L-Ala-D-Glu(OCH3)2, 2-(2-acetamido-2-deoxy-3-O-D-glucopyranose)-D-propionyl-L-alanyl-D-glutamic dimethyl ester] | 50 | 50 | 400 | 800 | 52.5 | 15 | 12 | 10 | 88 | 46 | 10 | 9 | 8 | 8 | 8 | 8 | 50 | 6.2 | 950 | 2600 | Number of animals surviving on day 3 [5, 17]: 21; Number of animals surviving on day 5 [5, 17]: 19; Number of animals surviving on day 8 [5, 17]: 15 |
